Data taken from patent publication US11591341B2 (ALIGOS THERAPEUTICS, INC., priority 2019, dated 2023).

Test system: HBV
Test: HBV-DNA Antiviral Assay Using HepG2.117 Cells (intracellular HBV DNA by qPCR)
Assay type: cell-based, hepatitis B virus (genotype D)
Conditions: Hepatitis B virus, HepG2.117
Summary of the method: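 Endpoint: qPCR copy number of intracellular HBV DNA after 3-day compound exposure, with inhibition set relative to the 2% DMSO control. The cells were doxycycline-free HepG2.117 carrying a Tet-off genotype D genome, dosed at nine 4-fold dilutions. A duplicate plate gave ATP-based viability (CC50).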

Structure (SMILES) | EC50 [nM]
O=C(NCc1ccccc1-c1ncccn1)c1c2n(c(=O)n1-c1ccc(OCC(F)(F)F)cc1)CCN(C(=O)c1ccc(Br)c(Cl)c1)C2 [Example 377, 7-(4-bromo-3-chloro-benzoyl)-3-oxo-N-[(2-pyrimidin-2-ylphenyl)methyl]-2-[4-(2,2,2-trifluoroethoxy)phenyl]-6,8-dihydro-5H-imidazo[1,5-a]pyrazine-1-carboxamide] | < 100
O=C(NCc1ccccc1-c1cocn1)c1c2n(c(=O)n1-c1ccc(OCC(F)(F)F)cc1)CCN(C(=O)c1ccc(Br)c(Cl)c1)C2 [Example 386, 7-(4-bromo-3-chloro-benzoyl)-N-[(2-oxazol-4-ylphenyl)methyl]-3-oxo-2-[4-(2,2,2-trifluoroethoxy)phenyl]-6,8-dihydro-5H-imidazo[1,5-a]pyrazine-1-carboxamide] | 100 to 500
O=C(NCc1ccccc1-c1cccnn1)c1c2n(c(=O)n1-c1ccc(OC3CC3)cc1)CCN(C(=O)c1ccc(Br)c(Cl)c1)C2 [Example 387, 7-(4-bromo-3-chloro-benozyl)-2-[4-(cyclopropoxy)phenyl]-3-oxo-N-[(2-pyridazin-3-ylphenyl)methyl]-6,8-dihydro-5H-imidazo[1,5-a]pyrazine-1-carboxamide] | < 100
O=C(NCc1ccccc1-c1cccnn1)c1c2n(c(=O)n1-c1ccc(OCC(F)(F)F)cc1)CCN(C(=O)c1ccc(Br)c(Cl)c1)C2 [Example 388, 7-(4-bromo-3-chloro-benzoyl)-3-oxo-N-[(2-pyridazin-3-ylphenyl)methyl]-2-[4-(2,2,2-trifluoroethoxy)phenyl]-6,8-dihydro-5H-imidazo[1,5-a]pyrazine-1-carboxamide] | < 100
O=C(NCc1ccccc1)c1c2n(c(=O)n1-c1ccc3nonc3c1)CCN(C(=O)c1ccc(Br)c(Cl)c1)C2 [Example 389, 2-(2,1,3-benzoxadiazol-5-yl)-N-benzyl-7-(4-bromo-3-chloro-benzoyl)-3-oxo-6,8-dihydro-5H-imidazo[1,5-a]pyrazine-1-carboxamide] | 500 to 5000
O=C(NCc1ccccc1)c1c2n(c(=O)n1-c1ccc(N3CCC3)cc1)CCN(C(=O)c1ccc(Br)c(Cl)c1)C2 [Example 390, 2-[4-(azetidin-1-yl)phenyl]-N-benzyl-7-(4-bromo-3-chloro-benzoyl)-3-oxo-6,8-dihydro-5H-imidazo[1,5-a]pyrazine-1-carboxamide] | 100 to 500
O=C(NCc1ccccc1)c1c2n(c(=O)n1-c1ccc(N3CC(F)(F)C3)cc1)CCN(C(=O)c1ccc(Br)c(Cl)c1)C2 [Example 391, N-benzyl-7-(4-bromo-3-chloro-benzoyl)-2-[4-(3,3-difluoroazetidin-1-yl)phenyl]-3-oxo-6,8-dihydro-5H-imidazo[1,5-a]pyrazine-1-carboxamide] | 100 to 500
O=C(NCc1ccccc1)c1c2n(c(=O)n1-c1ccc(N3CCC(F)(F)C3)cc1)CCN(C(=O)c1ccc(Br)c(Cl)c1)C2 [Example 392, N-benzyl-7-(4-bromo-3-chloro-benzoyl)-2-[4-(3,3-difluoropyrrolidin-1-yl)phenyl]-3-oxo-6,8-dihydro-5H-imidazo[1,5-a]pyrazine-1-carboxamide] | 100 to 500
CC(C)(Oc1ccc(-n2c(C(=O)NCc3ccccc3)c3n(c2=O)CCN(C(=O)c2ccc(Br)c(Cl)c2)C3)cc1)C(F)(F)F [Example 393, N-benzyl-7-(4-bromo-3-chloro-benzoyl)-3-oxo-2-[4-(2,2,2-trifluoro-1,1-dimethyl-ethoxy)phenyl]-6,8-dihydro-5H-imidazo[1,5-a]pyrazine-1-carboxamide] | 500 to 5000
O=C(NCc1ccccc1)c1c2n(c(=O)n1-c1ccc(-n3cncn3)cc1)CCN(C(=O)c1ccc(Br)c(Cl)c1)C2 [Example 395, N-benzyl-7-(4-bromo-3-chloro-benzoyl)-3-oxo-2-[4-(1,2,4-triazol-1-yl)phenyl]-6,8-dihydro-5H-imidazo[1,5-a]pyrazine-1-carboxamide] | 500 to 5000
CC(C)(C)Oc1ccc(-n2c(C(=O)NCc3ccccc3)c3n(c2=O)CCN(C(=O)c2ccc(Br)c(Cl)c2)C3)cc1 [Example 396, N-benzyl-7-(4-bromo-3-chloro-benzoyl)-2-(4-tert-butoxyphenyl)-3-oxo-6,8-dihydro-5H-imidazo[1,5-a]pyrazine-1-carboxamide] | 100 to 500
CC1(C)C(=O)Nc2ccc(-n3c(C(=O)NCc4ccccc4)c4n(c3=O)CCN(C(=O)c3ccc(Br)c(Cl)c3)C4)cc21 [Example 397, N-benzyl-7-(4-bromo-3-chloro-benozyl)-2-(3,3-dimethyl-2-oxo-indolin-5-yl)-3-oxo-6,8-dihydro-5H-imidazo[1,5-a]pyrazine-1-carboxamide] | 500 to 5000
O=C(NCc1ccccc1-c1cocn1)c1c2n(c(=O)n1-c1ccc(OC3CC3)cc1)CCN(C(=O)c1ccc(Br)c(Cl)c1)C2 [Example 398, 7-(4-bromo-3-chloro-benzoyl)-2-[4-(cyclopropxy)phenyl]-N-[(2-oxazol-4-ylphenyl)methyl]-3-oxo-6,8-dihydro-5H-imidazo[1,5-a]pyrazine-1-carboxamide] | < 100
Cn1cnc2c(CNC(=O)c3c4n(c(=O)n3-c3ccc(OC5CC5)cc3)CCN(C(=O)c3ccc(Br)c(Cl)c3)C4)cccc21 [Example 399, 7-(4-bromo-3-chloro-benzoyl)-2-[4-(cyclopropoxy)phenyl]-N-[(1-methylbenzimidazol-4-yl)methyl]-3-oxo-6,8-dihydro-5H-imidazo[1,5-a]pyrazine-1-carboxamide] | 100 to 500
Cn1cnc2c(CNC(=O)c3c4n(c(=O)n3-c3ccc(OCC(F)(F)F)cc3)CCN(C(=O)c3ccc(Br)c(Cl)c3)C4)cccc21 [Example 400, 7-(4-bromo-3-chloro-benzoyl)-N-[(1-methylbenzimidazol-4-yl)methyl]-3-oxo-2-[4-(2,2,2-trifluoroethoxy)phenyl]-6,8-dihydro-5H-imidazo[1,5-a]pyrazine-1-carboxamide] | 100 to 500
O=C(NCc1ccccc1-c1cnccn1)c1c2n(c(=O)n1-c1ccc(OC3CC3)cc1)CCN(C(=O)c1ccc(Br)c(Cl)c1)C2 [Example 401, 7-(4-bromo-3-chloro-benzoyl)-2-[4-(cyclopropoxy)phenyl]-3-oxo-N-[(2-pyrazin-2-ylphenyl)methyl]-6,8-dihydro-5H-imidazo[1,5-a]pyrazine-1-carboxamide] | < 100
O=C(NCc1ccccc1-c1cnccn1)c1c2n(c(=O)n1-c1ccc(OCC(F)(F)F)cc1)CCN(C(=O)c1ccc(Br)c(Cl)c1)C2 [Example 402, 7-(4-bromo-3-chloro-benzoyl)-3-oxo-N-[(2-pyrazin-2-ylphenyl)methyl]-2-[4-(2,2,2-trifluoroethoxy)phenyl]-6,8-dihydro-5H-imidazo[1,5-a]pyrazine-1-carboxamide] | < 100
O=C1CCc2cc(-n3c(C(=O)NCc4ccccc4)c4n(c3=O)CCN(C(=O)c3ccc(Br)c(Cl)c3)C4)ccc2N1 [Example 403, N-benzyl-7-(4-bromo-3-chloro-benzoyl)-3-oxo-2-(2-oxo-3,4-dihydro-1H-quinolin-6-yl)-6,8-dihydro-5H-imidazo[1,5-a]pyrazine-1-carboxamide] | 500 to 5000
O=C1COc2cc(-n3c(C(=O)NCc4ccccc4)c4n(c3=O)CCN(C(=O)c3ccc(Br)c(Cl)c3)C4)ccc2N1 [Example 404, N-benzyl-7-(4-bromo-3-chloro-benzoyl)-3-oxo-2-(3-oxo-4H-1,4-benzoxazin-7-yl)-6,8-dihydro-5H-imidazo[1,5-a]pyrazine-1-carboxamide] | 500 to 5000
CC(C)Oc1ccc(-n2c(C(=O)NCc3ccc(C(C)(C)O)cc3)c3n(c2=O)CCN(C(=O)c2ccc(Br)c(Cl)c2)C3)cc1 [Example 407, 7-(4-bromo-3-chloro-benzoyl)-N-[[4-(1-hydroxy-1-methyl-ethyl)phenyl]methyl]-2-(4-isopropoxyphenyl)-3-oxo-6,8-dihydro-5H-imidazo[1,5-a]pyrazine-1-carboxamide] | < 100
O=C(NCc1ccccc1)c1c2n(c(=O)n1-c1ccc3cn[nH]c3c1)CCN(C(=O)c1ccc(Br)c(Cl)c1)C2 [Example 408, N-benzyl-7-(4-bromo-3-chloro-benzoyl)-2-(1H-indazol-6-yl)-3-oxo-6,8-dihydro-5H-imidazo[1,5-a]pyrazine-1-carboxamide] | 100 to 500
CC1(C)CN(c2ccc(-n3c(C(=O)NCc4ccccc4)c4n(c3=O)CCN(C(=O)c3ccc(Br)c(Cl)c3)C4)cc2)CCO1 [Example 410, N-benzyl-7-(4-bromo-3-chloro-benzoyl)-2-[4-(2,2-dimethylmorpholin-4-yl)phenyl]-3-oxo-6,8-dihydro-5H-imidazo[1,5-a]pyrazine-1-carboxamide] | 100 to 500
Cc1nc2c(CNC(=O)c3c4n(c(=O)n3-c3ccc(OCC(F)(F)F)cc3)CCN(C(=O)c3ccc(Br)c(Cl)c3)C4)cccc2o1 [Example 411, 7-(4-bromo-3-chloro-benzoyl)-N-[(2-methyl-1,3-benzoxazol-4-yl)methyl]-3-oxo-2-[4-(2,2,2-trifluoroethoxy)phenyl]-6,8-dihydro-5H-imidazo[1,5-a]pyrazine-1-carboxamide] | 100 to 500
O=C(NCc1ccccc1)c1c2n(c(=O)n1-c1ccc(N3CCCC3=O)cc1)CCN(C(=O)c1ccc(Br)c(Cl)c1)C2 [Example 412, N-benzyl-7-(4-bromo-3-chloro-benzoyl)-3-oxo-2-[4-(2-oxopyrrolidin-1-yl)phenyl]-6,8-dihydro-5H-imidazo[1,5-a]pyrazine-1-carboxamide] | 100 to 500
O=C(NCc1ccccc1)c1c2n(c(=O)n1-c1ccc(N3CCO[C@H](C(F)(F)F)C3)cc1)CCN(C(=O)c1ccc(Br)c(Cl)c1)C2 [Example 415, N-benzyl-7-(4-bromo-3-chloro-benzoyl)-2-[4-(2,2-difluoro-1λ^2-fluora-8-oxa-5-azaspiro[2.5]octan-5-yl)phenyl]-3-oxo-6,8-dihydro-5H-imidazo[1,5-a]pyrazine-1-carboxamide] | 100 to 500
Cc1nc2cc(-n3c(C(=O)NCc4ccccc4)c4n(c3=O)CCN(C(=O)c3ccc(Br)c(Cl)c3)C4)ccc2o1 [Example 418, N-benzyl-7-(4-bromo-3-chloro-benzoyl)-2-(2-methyl-1,3-benzoxazol-5-yl)-3-oxo-6,8-dihydro-5H-imidazo[1,5-a]pyrazine-1-carboxamide] | 100 to 500
